In patent US10919885B2, “Compounds and uses thereof” (Yumanity Therapeutics, Inc., priority 2018, dated 2021) one finds IC50 data, which are given here for 43 compounds.

Experiment [1] has as its target human SCD1 (Homo sapiens (Human), UniProt O00767). The experiment in a line: Yeast growth assay, strain expressing human SCD1 as the sole desaturase (reduced growth as surrogate for SCD inhibition). In kind it is cell-based. The note with it: yeast with OLE1 deleted expressing human SCD1 from a plasmid; growth read as OD600 after 40 h at 30° C.; top drug concentration 33.3 μM. Put shortly: (§1)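 Yeast lacking OLE1 depend on plasmid-borne human SCD1 or SCD5 and are tested in SD-Ura medium without oleic/palmitoleic acid or Tween.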

Experiment [2] concerns the target human SCD5 (Homo sapiens (Human), UniProt Q86SK9). The experiment in a line: Yeast growth assay, strain expressing human SCD5 as the sole desaturase (reduced growth as surrogate for SCD inhibition). The note with it: yeast with OLE1 deleted expressing human SCD5 from a plasmid; growth read as OD600 after 40 h at 30° C.; top drug concentration 33.3 μM. The format is cell-based. Put shortly:
as §1

Sequence of human SCD1 (O00767 whole entry): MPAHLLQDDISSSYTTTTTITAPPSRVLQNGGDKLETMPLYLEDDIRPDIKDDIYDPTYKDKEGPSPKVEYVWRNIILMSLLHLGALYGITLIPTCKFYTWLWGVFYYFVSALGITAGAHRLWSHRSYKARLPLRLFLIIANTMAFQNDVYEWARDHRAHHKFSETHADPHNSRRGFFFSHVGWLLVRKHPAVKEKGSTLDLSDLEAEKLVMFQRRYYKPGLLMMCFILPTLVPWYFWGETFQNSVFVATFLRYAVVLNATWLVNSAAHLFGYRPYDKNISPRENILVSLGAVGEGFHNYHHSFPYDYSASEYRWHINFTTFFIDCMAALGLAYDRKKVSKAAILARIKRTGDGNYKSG
Sequence of human SCD5 (Q86SK9 whole entry): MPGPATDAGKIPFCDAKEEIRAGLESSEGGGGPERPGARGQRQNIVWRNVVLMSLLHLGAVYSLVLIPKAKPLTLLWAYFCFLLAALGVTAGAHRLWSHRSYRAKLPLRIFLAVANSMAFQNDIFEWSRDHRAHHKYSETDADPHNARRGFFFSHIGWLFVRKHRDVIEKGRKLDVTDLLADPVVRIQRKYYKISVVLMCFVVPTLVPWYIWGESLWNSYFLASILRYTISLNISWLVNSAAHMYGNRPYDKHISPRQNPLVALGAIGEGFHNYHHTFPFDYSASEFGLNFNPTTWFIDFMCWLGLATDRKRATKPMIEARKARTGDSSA

Turning to `O=C(c1cc(-c2ccc3c(c2)OCO3)on1)N1CCCC1c1cccnc1` (centres unmarked) [Compound 362], the half-maximal inhibitory concentration (IC50) in experiment [1] and in experiment [2] was above 45 µM in each case.

Take `O=C(c1cc(-c2ccc3c(c2)OCO3)on1)N1CCCC1c1ccncc1` (centres unmarked) [Compound 363]: the IC50 in experiment [1] and in experiment [2] was above 45 µM each time.

On to `O=C(c1cc(-c2ccc3c(c2)OCO3)on1)N1CCCC1c1ccccc1F` (centres unmarked) [Compound 366], for which the half-maximal inhibitory concentration (IC50) in experiment [1] and in experiment [2] was above 45 µM in each case.

As for `O=C(c1cc(-c2ccc3c(c2)OCO3)on1)N1CCCC12CC2` [Compound 371], the results for the IC50 in experiment [1] and in experiment [2] were 30.4 µM and 4.92 µM, respectively.

Turning to `COc1ccc(C2CCCN2C(=O)c2cc(-c3ccc(OC)c(OC)c3)on2)cc1` (centres unmarked) [Compound 374], the concentration for half-maximal inhibition (IC50) – broadly, the concentration that inhibits the measured activity by half – is 32.2 µM in experiment [1] and above 45 µM in experiment [2].

In the case of `COc1ccc(-c2cc(C(=O)N3CCCC3c3ccc(OC)cc3)no2)cc1` (centres unmarked) [Compound 376], the half-inhibitory concentration (IC50) in experiment [1] and in experiment [2] was above 45 µM in each case.

On to `COc1ccc(C2CCCN2C(=O)c2cc(-c3ccccc3)on2)cc1` (centres unmarked) [Compound 377], for which the IC50 in experiment [1] and in experiment [2] was above 45 µM in each case.

In the case of `COc1ccc(C2CCCN2C(=O)c2cc(-c3ccc(F)c(F)c3)on2)cc1` (centres unmarked) [Compound 378], the 50% inhibitory concentration (IC50) in experiment [1] and in experiment [2] was above 45 µM in each case.

Turning to `COc1ccc(C2CCCN2C(=O)c2cc(-c3ccc(C(F)(F)F)cc3)on2)cc1` (centres unmarked) [Compound 381], the IC50 in experiment [1] and in experiment [2] was above 45 µM each time.

As to `COc1ccc(C2CCCN2C(=O)c2cc(-c3ccc(OC)c(F)c3)on2)cc1` (centres unmarked) [Compound 382], the IC50 in experiment [1] was 43.5 µM; in experiment [2], above 45 µM.

Take `O=C(c1cc(CC2CC2)on1)N1CCCC1c1ccccc1` (centres unmarked) [Compound 384]: the IC50 in experiment [1] is 30 µM; in experiment [2] it was above 45 µM.

`O=C(c1cc(-c2ccc3c(c2)OCO3)on1)N1CCCC1c1cccnn1` (centres unmarked) [Compound 391]: the concentration for half-maximal inhibition (IC50) in experiment [1] and in experiment [2] was above 45 µM each time.

As to `COc1ccc(C2CCCN2C(=O)c2cc(-c3ccc(C(F)(F)C(F)(F)F)cc3)on2)cc1` (centres unmarked) [Compound 392], the concentration for half-maximal inhibition (IC50) in experiment [1] and in experiment [2] was above 45 µM throughout.

Take `N#Cc1ccccc1C1CCCN1C(=O)c1cc(-c2ccc3c(c2)OCO3)on1` (centres unmarked) [Compound 398]: the IC50 in experiment [1] and in experiment [2] was above 45 µM in each case.

With `COc1ccc(C2CCCN2C(=O)c2cc(-c3ccc4nc(N(C)C)oc4c3)on2)cc1` (centres unmarked) [Compound 399], the figures for the IC50 in experiment [1] and in experiment [2] were 15 µM and 2.89 µM, respectively.

Regarding `COc1ccc(C2CCCN2C(=O)c2cc(-c3ccc4ocnc4c3)on2)cc1` (centres unmarked) [Compound 400], the 50% inhibitory concentration (IC50) in experiment [1] and in experiment [2] was above 45 µM throughout.

On to `COc1ccc(C2CCCN2C(=O)c2cc(-c3ccc4ncoc4c3)on2)cc1` (centres unmarked) [Compound 401], for which the IC50 in experiment [1] and in experiment [2] was above 45 µM in each case.

As to `N#Cc1ccc(-c2cc(C(=O)N3CCC[C@H]3c3ccccc3)no2)cc1` [Compound 404], the IC50 in experiment [1] and in experiment [2] was above 45 µM throughout.

Turning to `O=C(c1cc(-c2cccnc2)on1)N1CCC[C@H]1c1ccccc1` [Compound 405], the concentration for half-maximal inhibition (IC50) in experiment [1] was 33.3 µM; in experiment [2], above 45 µM.

As for `O=C(c1cc(-c2ccc3c(c2)OCO3)on1)N1COCC1c1ccccc1` (centres unmarked) [Compound 406], the concentration for half-maximal inhibition (IC50) in experiment [1] and in experiment [2] was above 45 µM in each case.

On to `O=C(c1cc(-c2ccncc2)on1)N1CCC[C@H]1c1ccccc1` [Compound 409], for which the results for the concentration for half-maximal inhibition (IC50) in experiment [1] and in experiment [2] were 23 µM and above 45 µM, respectively.

For the compound `COc1cc(C2CCCN2C(=O)c2cc(-c3ccc4c(c3)OCO4)on2)on1` (centres unmarked) [Compound 411], the IC50 in experiment [1] was 30 µM; in experiment [2], above 45 µM.

For `O=C(c1cc(-c2ccc3c(c2)OCO3)on1)N1CC(O)C[C@H]1c1ccccc1` (some centres unmarked) [Compound 414], the IC50 in experiment [1] was 30 µM; in experiment [2], above 45 µM.

Regarding `Cn1nccc1C1CCCN1C(=O)c1cc(-c2ccc3c(c2)OCO3)on1` (centres unmarked) [Compound 417], the half-inhibitory concentration (IC50) in experiment [1] and in experiment [2] was above 45 µM in each case.

Consider `O=C(c1cc(-c2ccc3c(c2)OCO3)on1)N1CCCC1c1cnccn1` (centres unmarked) [Compound 418], for which the IC50 in experiment [1] and in experiment [2] was above 45 µM in each case.

Regarding `O=C(c1cc(-c2ccc3c(c2)OCO3)on1)N1C[C@@H](O)C[C@H]1c1ccccc1` [Compound 421], the half-maximal inhibitory concentration (IC50) in experiment [1] and in experiment [2] was above 45 µM each time.

For `O=C(c1cc(-c2ccc3c(c2)OCO3)on1)N1C[C@H](O)C[C@H]1c1ccccc1` [Compound 422], the IC50 in experiment [1] and in experiment [2] was above 45 µM in each case.

As to `CN1CCC(C2CCCN2C(=O)c2cc(-c3ccc4c(c3)OCO4)on2)CC1` (centres unmarked) [Compound 424], the half-inhibitory concentration (IC50) in experiment [1] and in experiment [2] was above 45 µM each time.

On to `Cn1ncc2cccc(C3CCCN3C(=O)c3cc(-c4ccc5c(c4)OCO5)on3)c21` (centres unmarked) [Compound 425], for which the half-inhibitory concentration (IC50) in experiment [1] and in experiment [2] was above 45 µM throughout.

As for `Cn1ccc(-c2cc(C(=O)N3CCC[C@H]3c3ccccc3)no2)cc1=O` [Compound 428], the IC50 was 29.4 µM in experiment [1] and above 45 µM in experiment [2].

Take `COc1cc(F)ccc1C1CCCN1C(=O)c1cc(-c2ccc3c(c2)OCO3)on1` (centres unmarked) [Compound 430]: the values for the IC50 in experiment [1] and in experiment [2] were above 45 µM and 30 µM, respectively.

`O=C(c1cc(-c2ccc3c(c2)OCO3)on1)N1CCCC1c1ncccn1` (centres unmarked) [Compound 431]: the half-inhibitory concentration (IC50) in experiment [1] and in experiment [2] was above 45 µM in each case.

Take `O=C(c1cc(-c2ccn3ncnc3c2)on1)N1CCC[C@H]1c1ccccc1` [Compound 432]: the IC50 in experiment [1] is 40 µM; in experiment [2], above 45 µM.

Consider `O=C(c1cc(-c2ccnnc2)on1)N1CCC[C@H]1c1ccccc1` [Compound 433], for which the values for the IC50 in experiment [1] and in experiment [2] were 36.8 µM and above 45 µM, respectively.

For `O=C(c1cc(-c2ccc3c(c2)OCO3)on1)N1CCCC1Cc1ccccc1` (centres unmarked) [Compound 434], the results for the concentration for half-maximal inhibition (IC50) in experiment [1] and in experiment [2] were above 45 µM and 4.67 µM, respectively.

As for `O=C(c1cc(-c2ccccc2)on1)N1CCCC1Cc1ccccc1` (centres unmarked) [Compound 436], the values for the IC50 in experiment [1] and in experiment [2] were above 45 µM and 8.9 µM, respectively.

`COc1cccnc1C1CCCN1C(=O)c1cc(-c2ccc3c(c2)OCO3)on1` (centres unmarked) [Compound 437]: the IC50 in experiment [1] and in experiment [2] was above 45 µM throughout.

For `Cc1cnoc1C1CCCN1C(=O)c1cc(-c2ccc3c(c2)OCO3)on1` (centres unmarked) [Compound 439], the IC50 in experiment [1] and in experiment [2] was above 45 µM each time.

In the case of `O=C(c1cc(-c2ccc3ncnn3c2)on1)N1CCC[C@H]1c1ccccc1` [Compound 441], the IC50 in experiment [1] is 32.4 µM; in experiment [2], above 45 µM.

`Cc1cc(C2CCCN2C(=O)c2cc(-c3ccc4c(c3)OCO4)on2)no1` (centres unmarked) [Compound 442]: the IC50 in experiment [1] and in experiment [2] was above 45 µM in each case.

Regarding `CCOc1ccc(-c2cc(C(=O)N3CCC[C@H]3c3ccccc3)no2)cc1F` [Compound 443], the IC50 in experiment [1] and in experiment [2] was above 45 µM throughout.

On to `COc1ccc(-c2cc(NC(=O)[C@@H]3CCCN3c3ccccc3)on2)cc1` [Compound 445], for which the IC50 in experiment [1] and in experiment [2] was above 45 µM throughout.

As to `O=C(c1cc(-c2ccc3c(c2)OCO3)on1)N1CCCC1c1ncccc1Br` (centres unmarked) [Compound 447], the IC50 in experiment [1] and in experiment [2] was above 45 µM in each case.
